Laboratory results: patent US12497666B2, “Nucleic acid biomarker and use thereof” (Daiichi Sankyo Co., Ltd., priority 2013, dated 2025)

Key:
Sum225 = assay: Xenograft tumor growth inhibition by U3-1287, Sum225; format: in vivo; conditions: Sum225 xenograft in mice, BC FISH + ve; tumor volumes vs control mice
Procedure: (§1) The HRG biomarker was identified by analysing the anti-tumor activity of the anti-HER3 antibody U3-1287 on various human cancer xenografts in vivo and analysis of the expression of HRG of these cell lines in vitro. Human tumor cell lines of various indications were grown as xenografts in mice and treated with the […] antibody U3-1287 for several weeks. Inhibition of tumor growth was analysed by comparing the tumor volumes of control mice and mice treated with U3-1287. Human tumor cell lines were grown in vitro and analysed for HRG RNA expression by PCR.

MDA-MB453 = assay: Xenograft tumor growth inhibition by U3-1287, MDA-MB453; format: in vivo; conditions: MDA-MB453 xenograft in mice, BC FISH + ve; tumor volumes vs control mice
Procedure: as §1

BT474 [1] = assay: Xenograft tumor growth inhibition by U3-1287, BT474; format: in vivo; conditions: BT474 xenograft in mice, BC FISH + ve; tumor volumes vs control mice
Procedure: as §1

HCC 1569 = assay: Xenograft tumor growth inhibition by U3-1287, HCC 1569; format: in vivo; conditions: HCC 1569 xenograft in mice, BC FISH + ve; tumor volumes vs control mice
Procedure: as §1

ZR75-1 = assay: Xenograft tumor growth inhibition by U3-1287, ZR75-1; format: in vivo; conditions: ZR75-1 xenograft in mice, BC FISH + ve; tumor volumes vs control mice
Procedure: as §1

MCF-7 = assay: Xenograft tumor growth inhibition by U3-1287, MCF-7; format: in vivo; conditions: MCF-7 xenograft in mice, BC FISH + ve; tumor volumes vs control mice
Procedure: as §1

NCI-H441 = assay: Xenograft tumor growth inhibition by U3-1287, NCI-H441; format: in vivo; conditions: NCI-H441 xenograft in mice, NSCLC; tumor volumes vs control mice
Procedure: as §1

A549 [2] = assay: Xenograft tumor growth inhibition by U3-1287, A549; format: in vivo; conditions: A549 xenograft in mice, NSCLC; tumor volumes vs control mice
Procedure: as §1

Calu-3 = assay: Xenograft tumor growth inhibition by U3-1287, Calu-3; format: in vivo; conditions: Calu-3 xenograft in mice, NSCLC; tumor volumes vs control mice
Procedure: as §1

NC-H1975 = assay: Xenograft tumor growth inhibition by U3-1287, NC-H1975; format: in vivo; conditions: NC-H1975 xenograft in mice, NSCLC; tumor volumes vs control mice
Procedure: as §1

A375 = assay: Xenograft tumor growth inhibition by U3-1287, A375; format: in vivo; conditions: A375 xenograft in mice, Melanoma; tumor volumes vs control mice
Procedure: as §1

HT-144 = assay: Xenograft tumor growth inhibition by U3-1287, HT-144; format: in vivo; conditions: HT-144 xenograft in mice, Melanoma; tumor volumes vs control mice
Procedure: as §1

HT-29 = assay: Xenograft tumor growth inhibition by U3-1287, HT-29; format: in vivo; conditions: HT-29 xenograft in mice, Colon; tumor volumes vs control mice
Procedure: as §1

MKN-45 = assay: Xenograft tumor growth inhibition by U3-1287, MKN-45; format: in vivo; conditions: MKN-45 xenograft in mice, Gastric; tumor volumes vs control mice
Procedure: as §1

BxPC3 = assay: Xenograft tumor growth inhibition by U3-1287, BxPC3; format: in vivo; conditions: BxPC3 xenograft in mice, Pancreas; tumor volumes vs control mice
Procedure: as §1

FaDu = assay: Xenograft tumor growth inhibition by U3-1287, FaDu; format: in vivo; conditions: FaDu xenograft in mice, Head&Neck; tumor volumes vs control mice
Procedure: as §1

A549 [3] = assay: Reduction of phospho-HER3 and phospho-AKT levels by Western blotting, A549; format: cell-based, human; conditions: A549, endogenously express heregulin
Procedure: (§2) FIG. 14 depicts efficacy determined in vitro by measuring reduction of phospho-HER3 and phospho-AKT levels by Western blotting.
(§3) U3-1287 efficacy was determined in vitro by measuring reduction of phospho-HER3 and phospho-AKT levels.

CaOV3 = assay: Reduction of phospho-HER3 and phospho-AKT levels by Western blotting, CaOV3; format: cell-based, human; conditions: CaOV3, no basal HER3 activation, stimulated with exogenous heregulin
Procedure: as §2, §3

BT474 [4] = assay: HER3 phosphorylation by Western blot, BT474; format: cell-based, human
Source text: FIG. 15 depicts Western blots showing that U3-1287 can block […] basal HER3 phosphorylation.

[5] = Phase 1 monotherapy study of patritumab
Procedure: A higher maintenance dose level of 18 mg/kg was also included to accommodate the possible effect of reduced tumor tissue penetration in the clinical setting relative to animal models.

In the case of “patritumab: anti-HER3 antibody; U3-1287 corresponds to patritumab”, the “In vivo efficacy (SA)” value (Sum225) is reported as “No”, the “In vivo efficacy (SA)” value (MDA-MB453) is reported as “No” and the “In vivo efficacy (SA)” value (BT474 [1]) is reported as “No”. For the same substance, the “In vivo efficacy (SA)” value (HCC 1569) was “No”, the “In vivo efficacy (SA)” value (ZR75-1) was “No” and the “In vivo efficacy (SA)” value (MCF-7) was “No”. For the same substance, the “In vivo efficacy (SA)” value (NCI-H441) was “No”, the “In vivo efficacy (SA)” value (A549 [2]) was “Yes” and the “In vivo efficacy (SA)” value (Calu-3) was “Yes”. For the same substance, the “In vivo efficacy (SA)” value (NC-H1975) was “Yes”, the “In vivo efficacy (SA)” value (A375) was “No” and the “In vivo efficacy (SA)” value (HT-144) was “No”. The “In vivo efficacy (SA)” value (HT-29) was “Yes”, the “In vivo efficacy (SA)” value (MKN-45) was “Yes” and the “In vivo efficacy (SA)” value (BxPC3) was “Yes”. The “In vivo efficacy (SA)” value (FaDu) was “Yes”, the “Basal HER3 phosphorylation (phospho-HER3 and phospho-AKT levels)” value (A549 [3]) was “Basal HER3 phosphorylation could be blocked” and the “HER3 phosphorylation (phospho-HER3 and phospho-AKT levels)” value (CaOV3) was “could be blocked”. The “efficacy on HER3 phosphorylation” value (BT474 [4]; BT474 HRG: exogenously added heregulin) was “this could be overcome by exogenously added heregulin”, the “efficacy on HER3 phosphorylation” value (BT474 [4]; BT474 basal: basal HER3 phosphorylation, no heregulin expression) was “no efficacy” and the maximum tolerated dose ([5]; Phase 1 study) was “not reached”. The dose limiting toxicity ([5]; monotherapy Phase 1 study) was “lack of dose limiting toxicity”.
